How the values were obtained:
Test in all cases: Test D postemergence
Conditions in all cases: scale 0 to 100
chickweed = format: in vivo, Stellaria media
Source text: (§1) Seeds of plant species selected from bluegrass (annual bluegrass, Poa annua), blackgrass (Alopecurus myosuroides), canarygrass (Phalaris minor), chickweed (common chickweed, Stellaria media), galium (catchweed bedstraw, Galium aparine), bromegrass, down (downy bromegrass, Bromus tectorum), Russian thistle (Salsola kali), field poppy (Papaver rhoeas), field violet (Viola arvensis), foxtail, green (green foxtail, Setaria viridis), deadnettle (henbit deadnettle, Lamium amplexicaule), ryegrass, Ital. (Italian ryegrass, Lolium multiflorum), kochia (Kochia scoparia), lambsquarters (Chenopodium album), oilseed rape (Brassica napus), pigweed (Amaranthus retroflexus), chamomile (scentless chamomile, Matricaria inodora), speedwell (bird's-eye speedwell, Veronica persica), barley, spring (spring barley, Hordeum vulgare), wheat, spring (spring wheat, Triticum aestivum), buckwheat, wild (wild buckwheat, Polygonum convolvulus), wild mustard (Sinapis arvensis), oat, wild (wild oat, Avena fatua), radish, wild (wild radish, Raphanus raphanistrum), […]), barley, winter (winter barley, Hordeum vulgare), and wheat, winter (winter wheat, Triticum aestivum) were planted into a silt loam soil and treated preemergence with test chemicals formulated in a non-phytotoxic solvent mixture which included a surfactant. At the same time, these species were planted in pots containing Sunshine Redi-Earth® planting medium comprising spaghnum peat moss, vermiculite, starter nutrients and dolomitic limestone and treated with postemergence applications of the test chemicals formulated in the same manner. Plants ranged in height from 2 to 18 cm (1- to 4-leaf stage). Treated plants and controls were maintained in a controlled growth environment for 14 to 21 d after which time all species were compared to controls and visually evaluated. […] A dash (-) response means no test result.

canarygrass = format: in vivo, Phalaris minor
Source text: as §1

bromegrass, down = format: in vivo, Bromus tectorum
Source text: as §1

foxtail, green = format: in vivo, Setaria viridis
Source text: as §1

SMILES	Plant response rating: Chickweed (chickweed; 16 g ai/ha)	Plant response rating: Chickweed (chickweed; 31 g ai/ha)	Plant response rating: Chickweed (chickweed; 62 g ai/ha)	Plant response rating: Chickweed (chickweed; 125 g ai/ha)	Plant response rating: Canarygrass (canarygrass; 16 g ai/ha)	Plant response rating: Canarygrass (canarygrass; 31 g ai/ha)	Plant response rating: Canarygrass (canarygrass; 62 g ai/ha)	Plant response rating: Canarygrass (canarygrass; 125 g ai/ha)	Plant response rating: Bromegrass, Down (bromegrass, down; 16 g ai/ha)	Plant response rating: Bromegrass, Down (bromegrass, down; 31 g ai/ha)	Plant response rating: Bromegrass, Down (bromegrass, down; 62 g ai/ha)	Plant response rating: Bromegrass, Down (bromegrass, down; 125 g ai/ha)	Plant response rating: Foxtail, Green (foxtail, green; 16 g ai/ha)	Plant response rating: Foxtail, Green (foxtail, green; 31 g ai/ha)	Plant response rating: Foxtail, Green (foxtail, green; 62 g ai/ha)	Plant response rating: Foxtail, Green (foxtail, green; 125 g ai/ha)
FC(F)(F)COc1nc(-c2ccccc2)nn1Cc1ccnc(C(F)(F)F)c1 [Compound 24]	55	60	70	90	45	55	60	70	25	40	45	50	15	25	65	65
FC(F)(F)COc1nc(-c2ccc(Cl)cc2)nn1Cc1ccnc(C(F)(F)F)c1 [Compound 31]	80	90	100	100	65	75	80	80	25	45	50	70	70	80	80	85
CCOc1nc(-c2ccc(C(F)(F)F)cc2)nn1Cc1ccnc(C(F)(F)F)c1 [Compound 35, 4-[[5-ethoxy-3-[4-(trifluoromethyl)phenyl]-1H-1,2,4-triazole-1-yl]methyl]-2-(trifluoromethyl)pyridine]	70	85	100	100	65	70	75	80	40	55	60	75	70	80	95	95

From patent US10681909B2, “Herbicidal triazoles” (FMC Corporation, priority 2014, dated 2020)
